Test results taken from patent US20090117215A1, “EXTRACT OF CERATONIA SILIQUA LEAVES AND PODS CONTAINING POLYPHENOLS WITH ANTIOXIDANT AND ANTITUMOR ACTIVITIES” (priority 2001, published 2009).

Columns and labels:
[1] = tested on: T1 cells (liver tumour cells); assay: Cell proliferation assay (MTS) in T1 hepatic tumour cells; type: cell-based, mice; settings: for concentration at which proliferation is already inhibited / concentration reaching the peak activity (inhibition of proliferation): hepatic tumour cell cultures (T1), 24 and 48 hours exposure; for inhibition of cell proliferation in liver tumour cells: FIG. 1, after 24 and 48 hours exposure
Protocol: (§1) Tumour cell cultures (T1) used in the tests derive from transgenic mice hepatocellular carcinoma, in which an over-expression of the c-myc and TGFα had been induced. Cells were kept in L-glutamine-free DMEM medium, HAM F 12 containing 1 mg/ml galactose, 18 mM HEPES, 5 mM Na piruvate, 30 mg/M1 proline, ITS 100×, 2 mM glutamine, 0.1% gentamicin (Sigma-Aldrich, Italy) and added with 10% FBS. Cell lines were cultured in polystyrene plates (Dasit, Italy).
T1 cells were plated in 96 wells-plates at a concentration of 10,000 cells/well and left to sediment for 4-5 hours. Cells were then incubated in EGCG or ECG at a concentration of 20, 40, 60, 80, 160 μg/ml for 24 and 48 hours. The substances were diluted in the culture medium starting from stock solutions (aqueous solution for EGCG and aqueous-ethanol solution (1:1) for ECG). Control cells were treated with solutions containing ethanol in amounts corresponding to that of the samples containing catechins. After 24 or 48 hours, the proliferation was calorimetrically measured using a specific kit (Cell Titer Aqueous Cell Proliferation Assay, Promega) which makes use of a calorimetric transformation reaction of colourless MTS (tetrazolium salt) into coloured formazan by living, proliferating cells. Formazan quantitation was carried out by spectrophotometric analysis at λ=490 nm.

[2] = tested on: caspase 3; assay: Evaluation of caspase 3 activation in T1 cell lysates; type: cell-based, mice; settings: 80 μg/ml, compared with untreated cells; FIG. 2
Protocol: as §1
Caspase 3 protease activity in cells lysates was determined using a Promega kit. T1 Cells were treated with EGCG and ECG (80 μg/ml) alone or in combination with a caspase inhibitor (Z-VAD-FMK) for 24 or 48 hours. Afterwards a calorimetric substrate (DEVD-pNA) able to evidence the protease activity was added. After incubation for 4 hours at 37° C., the protease activity was determined by spectrophotometric analysis at λ=405 nm.

| Structure (SMILES) | concentration at which proliferation is already inhibited [1] [µg/mL] | concentration reaching the peak activity (inhibition of proliferation) [1] [µg/mL] | caspase 3 protease activity [2] | inhibition of cell proliferation in liver tumour cells [1] |
| --- | --- | --- | --- | --- |
| O=C(O[C@@H]1Cc2c(O)cc(O)cc2O[C@@H]1c1ccc(O)c(O)c1)c1cc(O)c(O)c(O)c1 [ECG, (−)-epicatechin-3-gallate] | 40 | 80 | activation | – |
| Oc1cc(O)c2c(c1)O[C@H](c1cc(O)c(O)c(O)c1)[C@H](O)C2 [EGC, epigallocatechin] | – | – | – | dose-dependent |
| O=C(O[C@@H]1Cc2c(O)cc(O)cc2O[C@@H]1c1cc(O)c(O)c(O)c1)c1cc(O)c(O)c(O)c1 [EGCG, (−)-epigallocatechin-3-gallate] | 40 | 80 | activation | dose-dependent |
